Experimental data taken from the supplement of paper PMC11208160.

Experiment: recombinant barcode read abundance after kanamycin selection (control-corrected) (log10(CPM+1)); higher = more efficient recombination; sequences stand for … in AGTGCAGAGAAAATCGGCCAGTTTTCTCTGCCTGCAGTCCGCATGCCGT…AGATTTATGCAGCGGACTGCCTTTCTCCCAAAGTGATAAACCGGACAGTATCATGGACCGGTTTTCCCGGTAATCCGTATTTGCAAGGTTGGTTTCACT; site = the 11-nt target
Experimental: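 Pooled E. coli target-specificity screen for the IS621 bridge recombinase. Each library plasmid pairs an 11-nt target (CT core) with a bridge RNA whose target-binding loop (9-nt LTG + 4-nt RTG) is reprogrammed; the rest of the 177-nt WT IS621 bridge RNA scaffold is fixed. The plasmid is co-electroporated with a WT donor plasmid; recombinase is induced with 0.1 mM IPTG and recombinants are selected on kanamycin. Recombinant barcodes are sequenced, converted to CPM, averaged over two biological replicates and corrected by the unselected control CPM. Molecule = full bridge RNA written as DNA: LTG = specificity nt 1-9, RTG = reverse complement of specificity nt 8-11, in the WT scaffold.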
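Note: IS621 recombinase and bridge RNA in Escherichia coli cells.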

Sequence | recombinant barcode read abundance (log10)
ACATGTCCTTGGGTTCTAACCTGTTGCTT (site ACATGTCCTAA) | 0.333
ACATGTCCTTGGGTTCTAACCTGTTGCTT (site ACATGTCCTAC) | 0.0155
ACATGTCCTTGGGTTCTAACCTGTTGCTT (site ACATGTCCTAG) | 0.136
ACATGTCCTTGGGTTCTAACCTGTTGCTT (site ACATGTCCTAT) | 0.287
ACATGTGCTTGGGTTCTAACCTGTTGCCT (site ACAGGTGCTAG) | 0.0246
ACATGTGCTTGGGTTCTAACCTGTTGCCT (site ACATGTGCTAG) | 1.66
ACATTAGCTTGGGTTCTAACCTGTTGCTG (site ACAATAGCTCA) | 0.182
ACATTAGCTTGGGTTCTAACCTGTTGCTG (site ACACTAGCTCA) | 0.0561
ACATTAGCTTGGGTTCTAACCTGTTGCTG (site ACAGTAGCTCA) | 0.18
ACATTAGCTTGGGTTCTAACCTGTTGCTG (site ACATTAGCTCA) | 0.603
ACATTGTCTTGGGTTCTAACCTGTTGCGG (site ACAATGTCTCC) | 0.13
ACATTGTCTTGGGTTCTAACCTGTTGCGG (site ACACTGTCTCC) | 0.236
ACATTGTCTTGGGTTCTAACCTGTTGCGG (site ACAGTGTCTCC) | 0.00595
ACATTGTCTTGGGTTCTAACCTGTTGCGG (site ACATTGTCTCC) | 1.1
ACCAACACTTGGGTTCTAACCTGTTGCTT (site ACCAACACTAA) | 0.115
ACCAACACTTGGGTTCTAACCTGTTGCTT (site TATTTAGCTCC) | 0.259
ACCACGCCTTGGGTTCTAACCTGTTGCCT (site ACCACGCCTAG) | 0.342
ACCACGCCTTGGGTTCTAACCTGTTGCCT (site ATCACGCCTAG) | 0.0537
ACCAGCCCTTGGGTTCTAACCTGTTGCTG (site ACCAGCCCTCA) | 1.38
ACCAGCCCTTGGGTTCTAACCTGTTGCTG (site TGATATTCTAG) | 0.0743
ACCAGTCCTTGGGTTCTAACCTGTTGCTA (site ACCAGTCCTCA) | 0.065
ACCAGTCCTTGGGTTCTAACCTGTTGCTA (site ACCAGTCCTTA) | 0.934

Sequence | recombinant barcode read abundance (log10)
ACCATACCTTGGGTTCTAACCTGTTGCAT (site ACCATACCTAT) | 0.385
ACCATACCTTGGGTTCTAACCTGTTGCAT (site TAGGATTCTGC) | 0.124
ACCCAATCTTGGGTTCTAACCTGTTGCAC (site ACCCAATCTGT) | 1.94
ACCCAATCTTGGGTTCTAACCTGTTGCAC (site TAGGCTACTTG) | 0.0478
ACCCAGCCTTGGGTTCTAACCTGTTGCCT (site ACCCAGCCTAA) | 0.146
ACCCAGCCTTGGGTTCTAACCTGTTGCCT (site ACCCAGCCTAC) | 1.27
ACCCAGCCTTGGGTTCTAACCTGTTGCCT (site ACCCAGCCTAG) | 1.44
ACCCAGCCTTGGGTTCTAACCTGTTGCCT (site ACCCAGCCTAT) | 0.522
ACCCAGTCTTGGGTTCTAACCTGTTGCGG (site ACCCAGTCTCC) | 2.08
ACCCAGTCTTGGGTTCTAACCTGTTGCGG (site GTAAGTGCTAT) | 0.151
ACCCCGTCTTGGGTTCTAACCTGTTGCCT (site ACCCCGTCTAG) | 1.65
ACCCCGTCTTGGGTTCTAACCTGTTGCCT (site ACCCTGTCTCG) | 0.0376
ACCCTGTCTTGGGTTCTAACCTGTTGCCG (site ACCCCGTCTAG) | 0.0728
ACCCTGTCTTGGGTTCTAACCTGTTGCCG (site ACCCTGTCTCG) | 2.44
ACCCTTACTTGGGTTCTAACCTGTTGCCT (site AACCTTACTAG) | 0.0611
ACCCTTACTTGGGTTCTAACCTGTTGCCT (site ACCCTTACTAG) | 1.07
ACCCTTACTTGGGTTCTAACCTGTTGCCT (site AGCCTTACTAG) | 0.00699
ACCCTTACTTGGGTTCTAACCTGTTGCCT (site ATCCTTACTAG) | 0.142
ACCGAGACTTGGGTTCTAACCTGTTGCCT (site ACCGAGACTAG) | 0.224
ACCGAGACTTGGGTTCTAACCTGTTGCCT (site ACCGCGACTAG) | 0.113
ACCGAGACTTGGGTTCTAACCTGTTGCCT (site ACCGGGACTAG) | 0.0279
ACCGAGACTTGGGTTCTAACCTGTTGCCT (site ACCGTGACTAG) | 0.0449

Sequence | recombinant barcode read abundance (log10)
ACCGAGGCTTGGGTTCTAACCTGTTGCCT (site AACGACGCTAG) | 0.193
ACCGAGGCTTGGGTTCTAACCTGTTGCCT (site ACCGAGGCTAG) | 0.824
ACCGCGACTTGGGTTCTAACCTGTTGCCT (site ACCGAGACTAG) | 0.0792
ACCGCGACTTGGGTTCTAACCTGTTGCCT (site ACCGCGACTAG) | 0.0908
ACCGCGACTTGGGTTCTAACCTGTTGCCT (site ACCGGGACTAG) | 0.218
ACCGCGACTTGGGTTCTAACCTGTTGCCT (site ACCGTGACTAG) | 0.121
ACCGCTTCTTGGGTTCTAACCTGTTGCCT (site AACGCTTCTAG) | 0.096
ACCGCTTCTTGGGTTCTAACCTGTTGCCT (site ACCGCTTCTAG) | 0.494
ACCGCTTCTTGGGTTCTAACCTGTTGCCT (site AGCGCTTCTAG) | 0.0685
ACCGCTTCTTGGGTTCTAACCTGTTGCCT (site ATCGCTTCTAG) | 0.329
ACCGTAGCTTGGGTTCTAACCTGTTGCCT (site ACCGTACCTAG) | 0.33
ACCGTAGCTTGGGTTCTAACCTGTTGCCT (site ACCGTAGCTAG) | 1.07
ACCGTGACTTGGGTTCTAACCTGTTGCCT (site ACCGAGACTAG) | 0.0423
ACCGTGACTTGGGTTCTAACCTGTTGCCT (site ACCGCGACTAG) | 0.272
ACCGTGACTTGGGTTCTAACCTGTTGCCT (site ACCGGGACTAG) | 0.0292
ACCGTGACTTGGGTTCTAACCTGTTGCCT (site ACCGTGACTAG) | 1.96
ACCTGACCTTGGGTTCTAACCTGTTGCGG (site ACCTGACCTCC) | 1.6
ACCTGACCTTGGGTTCTAACCTGTTGCGG (site CGGACTGCTAG) | 0.12
ACCTGCCCTTGGGTTCTAACCTGTTGCCT (site ACCTGACCTAG) | 0.154
ACCTGCCCTTGGGTTCTAACCTGTTGCCT (site ACCTGCCCTAG) | 1.38
ACCTGCCCTTGGGTTCTAACCTGTTGCCT (site ACCTGGCCTAG) | 0.0614
ACCTGCCCTTGGGTTCTAACCTGTTGCCT (site ACCTGTCCTAG) | 0.232
